Experimental data as given in patent US7307102B2, “Method of preventing or treating estrogen-dependent diseases and disorders” (Duke University, priority 1997, dated 2007).

Columns and labels:
[1] = Bone mineral density in ovariectomized rats (DEXA, pQCT); assay type: in vivo, rat; details: oral, 28 days
Experimental: FIGS. 3A and 3B. […] FIG. 3A. […] FIG. 3B.
(§1) Animal preparation. […] At sacrifice, animals were euthanized with C02, body weights were recorded and the uteri were removed and weighed. Uterus, vagina and mammary tissue were fixed in 10% neutral buffered formalin. Samples for histologic processing were taken from the mid-point of each uterine horn. Tissue samples were embedded in paraffin, stained with haematoxylin and eosin and evaluated microscopically. Lumbar vertebrae and both left and right tibiae were excised. Total blood cholesterol was measured (Roche Biomedical Laboratories).

[2] = system: MCF-7 breast cancer tumors; assay: Antiestrogen treatment of MCF-7 breast cancer tumors in nude mice (Example 4); assay type: in vivo, mouse; details: two highest doses of GW5638 (0.6 mg, 1.0 mg) vs 1.0 mg tamoxifen, FIG. 9
Experimental: FIG. 9. Effect of anti-estrogen treatment on MCF-7 breast cancer tumors in nude mice.
This study was conducted using tumor cells derived from the MCF-7 breast cancer line. This line is estrogen and progesterone receptor positive, dependent upon hormone and sensitive to antihormones. The tumor cells were inoculated into the flank of ovariectomized, athymic BALB/c Urd nunu mice. The mice were supplemented with slow release estrogen pellets. Animals were given subcutaneous daily injections as indicated below:
Group 1: control (corn oil)
Using calipers, tumors were measured in 2 dimensions, where tumor area=½×w/2×π.

[3] = Uterine wet weight, body weight and uterine histology in ovariectomized rats, 28 day treatment; assay type: in vivo, rat
Experimental: FIGS. 8A-8D. […] Photographs were taken at 150× magnification and subsequently enlarged to a final magnification of 600×.
as §1
In addition to measurements of uterine wet weight, a histological examination of the uteri harvested from the same animals was performed (FIGS. 7A-7F (low magnification) and FIGS. 8A-8D (high magnification)).

[4] = system: ER-TAF1; assay: C3 promoter-luciferase cotransfection assay in HepG2 cells, ER-TAF1 (AF-2 disrupted); assay type: cell-based, human
Text: FIGS. 1A and 1B. […] The human C3 promoter (−1807 to +58) fused to the firefly luciferase reporter gene was transfected along with an expression plasmid containing (FIG. 1A) the wild-type human estrogen receptor (ERwt), or (FIG. 1B) a mutated ER in which the AF-2 function had been disrupted (ER-TAFl) into HepG2 cells and tested for transcriptional activation in the presence of increasing concentrations of ER-modulator as indicated. Transfections were normalized for efficiency and cell number by cotransfecting an expression plasmid containing β-galactosidase. The normalized response was obtained by dividing light units by the activity of β-galactosidase as measured in an enzymatic assay. Triplicate transfections were performed. The data shown are representative of multiple experiments performed under similar conditions.
FIGS. 2A-2C. […] FIG. 2A. […] FIG. 2B. […] FIG. 2C. […] Transfections were normalized for efficiency and cell number by cotransfecting an expression plasmid containing β-galactosidase. The normalized response was obtained by dividing light units by the activity of β-galactosidase as measured in an enzymatic assay. Representative assays are shown in which triplicate transfections were performed. Error bars represent the standard error of the mean (SEM).
HepG2 cells were maintained in Modified Eagles Medium (MEM) (Life Technologies, Grand Island, N.Y.) plus 10% Fetal Calf Serum (FCS) (Life Technologies). Cells were plated in 24 well plates (coated with gelatin) 24 hours prior to transfection. DNA was introduced into the cells using Lipofectin (Life Technologies). Briefly, triplicate transfections were performed using 3 μg of total DNA. For standard transfections, 500 ng of pCMV-β-Gal (normalization vector), 1500 ng reporter (variable) and 1000 ng receptor (pRST7-hER (Dana et al, Mol. Endocrinol. 8:1193-1207 (1994)) were used for each triplicate. Incubation of the cells with Lipofectin proceeded for 3 hrs, at which time media was removed, cells were washed with PBS and then induced with the appropriate hormone diluted in phenol red-free media containing 10% charcoal stripped CS (Cyclone Inc.). Incubation with hormone continued for 48 hrs, after which cells were lysed and assayed for luciferase and β-galactosidase activity as previously described (Norris et al, JBC 270:22777-22782 (1995)).
A series of in vitro screens have been developed that permit the classification of ER-modulators into four mechanistically distinct groups (Tzukerman et al, Mol. Endocrinol. 8:21-30 (1994)). […] Using these assays, it has been possible to derive “fingerprints” of known ER-modulators (McDonnell et al, Mol. Endocrinol. 9:659-669 (1995)).
Subsequently, the transfected cells were assayed for luceriferase and β-galactosidase activity. Each data point in this experiment represents the average of triplicate determinations of the transcriptional activity under given experimental conditions.

[5] = Uterotrophic assay in immature rats
Experimental: FIG. 5. […] The data shown represent the mean value (±SEM).
Twenty-one day old female Sprague-Dawley rats (30-35 gms) were obtained from Harlan or Taconic Laboratories. Animals were sorted randomly into treatment groups of five, and average weights were recorded for each treatment group. Weights were recorded on each treatment day. […] On day of dosing, drug was diluted in 0.5% methyl cellulose, viscosity of 2% at 25° C.:400 centipoises (Sigma, St. Louis, Mo.)). Oral dosing by gavage was based on a total volume of 10 ml/kg body weight. […] Subcutaneous dosing was based on a total of 2 ml/kg body weight. […] On day 4, animals were sacrificed by C02 asphyxiation, body weights were obtained and uteri were removed, blotted and weighed. Data were expressed as uterine weight/body weight.
In this assay, uterine wet weight was used as a measure of ER-agonist activity in this tissue (FIG. 5).

[6] = Total serum cholesterol in ovariectomized rats; assay type: in vivo, rat; details: OVX rats, 28 days, lowest concentration tested, FIG. 4
Experimental: as §1

[7] = system: MCF-7 breast cancer tumors; assay: Dose response study, MCF-7 breast cancer tumors in nude mice (Example 5); assay type: in vivo, mouse; details: after 8 weeks, 0.6 mg and 1.0 mg vs 1.0 mg tamoxifen, FIG. 10
Experimental: 10 OVX donor mice were injected with 5 million MCF-7 cells. The resulting tumors were transplanted to recipient mice. All animals were given slow release estradiol pellets. […] Tumors were measured daily with calipers, and the area calculated as follows: Area=½×w/2×π.

## CC/C(=C(\c1ccccc1)c1ccc(/C=C/C(=O)O)cc1)c1ccccc1 [GW5638]
[1]; 90-day old OVX rats, FIG. 3A
  bone mineral density, lumbar spine: dose-dependent bone protective activity
[1]; OVX rats, FIG. 3B
  tibial BMD: effective at maintaining total bone mass
[1]; lumbar spine BMD, OVX rats, 3 μmol/kg(1 mg/kg)
  dose at which bone protection is as effective as estradiol: 3 µmol/kg
[2]
  effect on tumors compared with tamoxifen: no significant difference
[3]; 90-day old OVX rats, 28 days, doses up to three times that required for bone protection, FIG. 6
  uterotrophic activity (uterine wet weight): minimal uterotrophic activity
[3]; OVX rats, 28 days
  total body weight versus sham operated animals: no significant differences
  uterine epithelial cells, histology: dose-related hypertrophy
  uterine stroma, histology: marginal increase in intercellular connective tissue and ground substance
[3]; OVX rats, highest doses
  stromal response and eosinophilic infiltration at the highest doses: less than observed in estradiol treated rats
[3]; OVX rats, highest doses (3-fold higher than required for bone protection)
  epithelial hypertrophy at the highest doses: comparable to that of estradiol treated uteri
[4]; ER-TAF1
  inhibition of the partial agonist activity of raloxifene on ER-TAF1: inhibited
[4]; ER-TAF1, FIG. 2B
  inhibition of estradiol- and tamoxifen-induced ER-TAF1 transcriptional activity: capable of inhibiting
[4]; ER-TAF1, compound alone, FIG. 1B
  agonist activity on ER-TAF1: functionally inactive
[5]; 21 day old immature rats, in the presence of estradiol
  inhibition of the agonist activity of estradiol in the uterus: could completely inhibit the agonist activity of estradiol
[5]; rat, in vivo, po
  uterotrophic activity at 10 μm/kg/d: inactive
[6]
  total serum cholesterol level: as effective as estradiol in decreasing serum cholesterol levels
[7]
  tumor growth compared with tamoxifen: indistinguishable from the 1.0 mg tamoxifen
